Numbering of substitutions follows the chain as printed. Where a SMILES comes first, the peptide text is derived from it.
Key:
Assay type in all cases: cell-based, rabbit
[1] = target: T1, wild-type PepT1 (Oryctolagus cuniculus, UniProt P36836); assay: Diethylpyrocarbonate inhibition of PepT1-mediated dipeptide uptake and protection by substrates; conditions: 5 mM present during 1 mM DEPC incubation (15 min), uptake measured over 1 h
T1 construct: expressed in transfected cells; host or cells: Xenopus laevis oocytes injected with cRNA
T1 sequence (P36836 1-707): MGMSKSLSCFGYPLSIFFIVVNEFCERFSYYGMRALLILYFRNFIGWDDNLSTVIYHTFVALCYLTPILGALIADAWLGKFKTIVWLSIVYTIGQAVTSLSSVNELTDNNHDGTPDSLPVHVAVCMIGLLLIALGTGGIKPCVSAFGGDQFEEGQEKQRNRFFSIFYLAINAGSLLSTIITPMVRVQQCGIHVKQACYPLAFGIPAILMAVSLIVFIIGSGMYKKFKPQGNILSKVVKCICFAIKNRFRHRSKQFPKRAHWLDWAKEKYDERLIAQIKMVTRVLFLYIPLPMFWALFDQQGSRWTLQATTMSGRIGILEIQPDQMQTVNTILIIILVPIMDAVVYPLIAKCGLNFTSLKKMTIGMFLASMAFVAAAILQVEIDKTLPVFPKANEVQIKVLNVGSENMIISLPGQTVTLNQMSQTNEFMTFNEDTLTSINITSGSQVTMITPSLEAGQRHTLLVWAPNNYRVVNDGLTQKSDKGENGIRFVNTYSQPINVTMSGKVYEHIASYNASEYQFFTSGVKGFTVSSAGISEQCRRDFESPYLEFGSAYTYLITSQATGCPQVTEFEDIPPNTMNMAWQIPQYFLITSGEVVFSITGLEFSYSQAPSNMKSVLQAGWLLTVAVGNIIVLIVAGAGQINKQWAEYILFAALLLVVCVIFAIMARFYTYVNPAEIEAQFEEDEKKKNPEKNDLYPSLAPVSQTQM
Method: (§1) Zero-trans uptake of [^3H]-D-Phe-L-Gln (17.4 Ci/mmole, custom synthesised, Cambridge Research Biochemicals, Stockton-on-Tees, UK) was performed as previously described ([Meredith, 2004]). Briefly, 5 oocytes were incubated in 100 μl of uptake medium (95 mM NaCl, 2 mM KCl, 1 mM CaCl2, 0.42 mM MgCl2, 10 mM Tris/Hepes pH 7.4 or Tris/Mes pH 5.5) with tracer (0.4 μM) [^3H]-D-Phe-L-Gln. After incubation, the oocytes were washed sequentially five times in 1 ml of ice-cold 120 mM NaCl solution, lysed individually with 100 μl 2% (w/v) SDS and liquid scintillation counted. As a control non-injected oocytes were also incubated in uptake medium with [^3H]-D-Phe-L-Gln as above.
Diethylpyrocarbonate (DEPC) inhibition of PepT1 was performed using a similar protocol to that of [Terada, Saito, and Inui (1998)]. Briefly, PepT1 oocytes were preincubated with 1 mM DEPC for 15 min at pHout 5.5 in the absence or presence of the PepT1 substrates Gly-L-Gln, N-Acetyl-Phe ([Meredith et al., 2000]), and L-Ala-Tyramine (custom synthesised) and the non-substrate Tyr (all 5 mM). The oocytes were then washed in uptake medium before uptake assays were performed as detailed above.

[2] = target: T1, wild-type PepT1; assay: Accumulation of [3H]-D-Phe-L-Gln above the extracellular concentration by oocytes expressing wild-type PepT1
Method: as §1

[3] = target: T2, R282A-PepT1 (Oryctolagus cuniculus, UniProt P36836, R282A); assay: Apparent charge:peptide stoichiometry (two-electrode voltage clamp current / radiolabelled uptake), R282A-PepT1; conditions: R282A-PepT1, pHout 5.5, resting membrane potential
T2 construct: expressed in transfected cells; host or cells: Xenopus laevis oocytes injected with cRNA
T2 sequence (P36836 1-707 R282A): T1 sequence (P36836 1-707) with R282A
Method: Measurements of membrane potential were made by impaling oocytes with a single glass microelectrode (Intra 767 amplifier, WPI, Stevenage, Hertfordshire, UK) perfused in uptake medium (as above) with or without 0.4 μM D-Phe-L-Gln (synthesised in house), 0.6 mM Gly-L-Gln (Sigma, Poole, UK) or 10 mM 4-aminobenzoic acid (4-AMBA, Sigma). Two-electrode voltage clamp (TEVC) was performed by placing oocytes in a 0.1 ml recording chamber and perfusing with uptake solution (pH 5.5 or 7.4) at a rate of 15 ml/min. Oocytes were impaled by two agarose-cushioned microelectrodes filled with 3 M KCl (0.5–2.0 MΩ) and voltage-clamped at −60 mV using a Geneclamp 500B amplifier and PCLAMP 8.1 software (Axon Instruments, CA, USA). The holding potential was stepped from −60 mV over the range of −150 to +50 mV in 10 mV steps, each pulse lasting 100 ms, and returning to −60 mV in between test voltage pulses. Typically traces were filtered at 1 kHz during recording and digitized at 0.5–5 kHz using the DigiData 1200 interface (Axon Instruments, CA, USA). All experiments were carried out at room temperature.
In order to calculate the apparent charge:substrate stoichiometry, the peptide induced current that was measured by two-electrode voltage clamp at the oocyte resting membrane potential was divided by the radiolabelled dipeptide uptake in oocytes from the same preparation. […]

| protection of PepT1 from DEPC inhibition [1] | accumulation above extracellular concentration ([2]; third comparison, printed as wild-type PepT1 at pHout 7.4, 8 h incubation) | accumulation above extracellular concentration ([2]; third comparison, printed as wild-type PepT1 at pHout 7.4, 24 h incubation) | accumulation above extracellular concentration ([2]; wild-type PepT1, pHout 5.5, 8 h incubation) | accumulation above extracellular concentration ([2]; wild-type PepT1, pHout 5.5, 24 h incubation) | accumulation above extracellular concentration ([2]; wild-type PepT1, pHout 7.4, 8 h incubation) | accumulation above extracellular concentration ([2]; wild-type PepT1, pHout 7.4, 24 h incubation) | apparent stoichiometry (charge:peptide), normalised to wild-type 1:1 [3] | Compound |
| --- | --- | --- | --- | --- | --- | --- | --- | --- |
| largely prevented |  |  |  |  |  |  |  | NCC(=O)N[C@@H](CCC(N)=O)C(=O)O [Gly-L-Gln] (H-Gly-Gln-OH) |
|  | 1.0 ± 0.4 | 1.5 ± 0.3 | 8.0 ± 1.4 | 8.3 ± 1.0 | 2.5 ± 0.5 | 3.1 ± 0.5 -fold | 5 | NC(=O)CC[C@H](NC(=O)[C@H](N)Cc1ccccc1)C(=O)O [D-Phe-L-Gln] |

Reference: paper PMC2267855, “Site-directed mutagenesis of Arginine282 suggests how protons and peptides are co-transported by rabbit PepT1” (The International Journal of Biochemistry & Cell Biology, 2008)
